Test results from paper PMC3834340, “X-Ray Crystal Structure of the Ancestral 3-Ketosteroid Receptor–Progesterone–Mifepristone Complex Shows Mifepristone Bound at the Coactivator Binding Interface” (PLoS ONE, 2013).

How the values were obtained:
[1] = test system: T1, ancestral 3-ketosteroid receptor (ancSR2); test: X-ray crystal structure at […] Å (ternary complex, surface sites); the EC50 is from a separate CHO-K1 luciferase reporter assay and is not assigned to these sites; format: cell-based, synthetic construct
T1 construct: ancSR2 LBD, residues 2 through 248 modeled

[2] = test system: T1, ancestral 3-ketosteroid receptor (ancSR2); test: X-ray crystal structure at […] Å; the EC50 is from a Gal4-DBD–LBD luciferase reporter assay in CHO-K1 cells; format: cell-based, synthetic construct

Row | EC50 [1] | Structure (SMILES) | EC50 [2]
1 | 56 ± 1.2 nM | CC#C[C@]1(O)CC[C@H]2[C@@H]3CCC4=CC(=O)CCC4=C3[C@@H](c3ccc(N(C)C)cc3)C[C@@]21C [mifepristone] | 
2 |  | CC(=O)[C@H]1CC[C@H]2[C@@H]3CCC4=CC(=O)CC[C@]4(C)[C@H]3CC[C@]12C [progesterone] | 0.078 ± 0.0017 nM
